# Read-outs that look alike come from different tables or passages of the source.
# Columns and labels:
# [1] = MIC of common antibiotics in the presence of sub-MIC levels of cationic peptides; assay type: cell-based
# Excerpt: The ability of the cationic peptides to work synergistically was examined by determining the MIC values for some commonly used antibiotics in the presence of sub-MIC levels of cationic peptides (Table 4). […] This may be due to the high membrane permeabilizing activity of CEMA (see below). However, the peptides did lower the MIC of polymyxin B, possibly due to the fact that they are all taken up by the same pathway and are therefore aiding each other's uptake. Of interest is the influence that melittin has on the MIC of polymyxin B, given the weak membrane permeabilizing activity of melittin.
# S. aureus = test: microbe, parasite or virus in culture; assay type: cell-based, Staphylococcus aureus
# Protocol: (§1) The minimum inhibitory concentrations of (MIC) of CEME, CEMA and melittin were determined for a number of different bacteria (Table 2). Briefly, cells were grown overnight at 37° C. in LB-S (Luria broth without any salt supplement) and diluted one in 10,000 in the same medium to give concentrations of about 10^4 to 10^5 CFU/ml. The broth dilutions were set up in a 96 well microtiter plate by putting 200 μl of LB-S containing the initial concentration of antibiotic or compound in column 1 and 100 μl of the same medium in columns 2-12. The compounds were diluted by taking 100 μl of broth from column 1 and mixing it with column 2, resulting in a one in two dilution. This was continued to column 10. Finally, 10 μl of bacteria were pipetted into columns 1-11, and the plates incubated overnight at 37° C. The next day the plates were scored for growth in the wells, and the MIC determined.
# [2] = tested on: P. aeruginosa H309 Whole Cells; test: DPx binding inhibition using whole cells; design: species or system Pseudomonas aeruginosa; settings: DPx at 90-100% binding saturation, average of at least three trials
# Protocol: For DPx binding inhibition assays using whole cells instead of purified LPS, H309 cells were prepared the same way as for the lysozyme lysis assay. The assay consisted of 10 μl of cells at an OD600 of 0.5, 990 μl of 5 mM HEPES pH 7.2 and 5 mM KCN, and the concentration of DPx that gave 90-100% binding saturation. […] Compounds were titrated in, and I50 values were determined as described above.
# E. coli = test: microbe, parasite or virus in culture; assay type: cell-based, Escherichia coli
# Protocol: as §1
# (§2) Bacteria included the Bort strain of E. coli (Bortolussi, et al., Inf. Immun., 25:293, 1979) that was originally derived from a case of neonatal meningitis, and which is therefore considered a relevant pathogenic strain to study, and the 0111:B4 strain of E. coli (kindly provided by Dr. D. Morrison) which is a standard source of endotoxin. (Kelly, et al., Inf. Immun., 59:4491, 1991). In addition, P. aeruginosa PA01 strain H103, P. aeruginosa M2, P. aeruginosa K799, Eschericha coli UB 1005, Enterobacter cloacae 218S, Salmonella typhimurium MS7953s, Klebsiella pneumoniae ATCC 13883, Xanthomonas maltophilia ATCC 13637, and Acinetobacter calcoacetious 8193 were employed. LPS was obtained from E. coli Bort by the technique of Westphal and Jann, (Westphal, et al., Acad. Press, Inc. NY., 5:83) and from P. aeruginosa H103 by the method of Darveau and Hancock, (Darveau, et al., J. Bacteriol, 155:831, […]). E. coli 0111:B4 LPS was purchased from Sigma.
# P. aeruginosa = test: microbe, parasite or virus in culture; assay type: cell-based, Pseudomonas aeruginosa
# Protocol: as §1, §2
# P. AERUGINOSA H309 = test: microbe, parasite or virus in culture; assay type: cell-based, Pseudomonas aeruginosa
# Protocol: as §1, with “Briefly,” for “The minimum inhibitory concentrations of (MIC) of CEME, CEMA and melittin were determined for a number of different bacteria (Table 2). Briefly,”
# E. cloacae = test: microbe, parasite or virus in culture; assay type: cell-based, Enterobacter cloacae
# Protocol: as §1, §2
# P. aeruginosa H103 LPS = test: Dansyl polymyxin (DPx) displacement from purified LPS; assay type: binding, Pseudomonas aeruginosa; settings: 2.5 μM DPx, 3 μg/ml LPS, 5 mM HEPES pH 7.2, average of at least three trials
# Protocol: In this assay, DPx was incubated with LPS to saturate the binding sites and then, while polycationic compounds are titrated into the reaction, displacement of the DPx was monitored by the decrease in fluorescence (FIG. 9). P. aeruginosa LPS was isolated as previously described (Darveau, et al., J of Bacteriology, 155:831, 1983) Dansyl polymyxin was synthesized as described by Schindler, et al., B. Antimicrobial Agents and Chemo, 8:95, 1975.
# The method of Moore, et al., (Antimicrobial Agents and Chemo., 29:496, 1987), was used to test how much DPx was needed to saturate the binding sties on LPS. Briefly, 5 μl samples of 100 μM DPx were titrated sequentially into 1 ml of 3 μg/ml of LPS until a maximum fluorescence was reached. The fluorescence was measured in a Perkin-Elmer 650-10S fluorescence spectrophotometer with an excitation wavelength of 340 nm and an emission wavelength of 485 nm using slit widths of 5 nm. […] For the binding inhibition assays (Moore, et al., Antimicrobial Agents and Chemo., 29:496, 1987), 2.5 μM DPx was added to 3 μg/ml of H103 LPS in 5 mM HEPES pH 7.2. The test compounds were added 5 μl at a time and the decrease in fluorescence due to displacement of the DPx from the LPS was recorded.
# When the data was plotted as a double reciprocal plot (FIG. 10), the X-intercept provided a value that is equal to -1/I50.
# S. typhimurium = test: microbe, parasite or virus in culture; assay type: cell-based, Salmonella typhimurium
# Protocol: as §1, §2
compound,measurement,setting,value
"CN(C)[C@@H]1C(O)=C(C(N)=O)C(=O)[C@@]2(O)C(O)=C3C(=O)c4c(O)cccc4[C@@](C)(O)[C@H]3C[C@@H]12 [Tetracycline, tetracycline]",MIC in the presence of,[1]; CEMA 0.7 μg/ml,8 μg/m1
same,MIC in the presence of,[1]; CEMA 1.4 μg/ml,4 μg/m1
same,MIC in the presence of,[1]; CEME 0.6 μg/ml,8 μg/m1
same,MIC in the presence of,[1]; CEME 1.2 μg/ml,8 μg/m1
same,MIC in the presence of,[1]; Melittin 2 μg/ml,8 μg/m1
same,MIC in the presence of,[1]; Melittin 4 μg/ml,8 μg/m1
same,MIC in the presence of,[1]; No peptide,8 μg/m1
"C[C@@H](O)[C@H]1C(=O)N2C(C(=O)O)=C(SCCN=CN)C[C@H]12 [Imipenem, imipenem]",MIC in the presence of,[1]; CEMA 0.7 μg/ml,4 μg/m1
same,MIC in the presence of,[1]; CEMA 1.4 μg/ml,2 μg/m1
same,MIC in the presence of,[1]; CEME 0.6 μg/ml,4 μg/m1
same,MIC in the presence of,[1]; CEME 1.2 μg/ml,4 μg/m1
same,MIC in the presence of,[1]; Melittin 2 μg/ml,4 μg/m1
same,MIC in the presence of,[1]; Melittin 4 μg/ml,4 μg/m1
same,MIC in the presence of,[1]; No peptide,4 μg/m1
gentamicin,MIC,"S. aureus; strain RN4220, Methicillin sensitive",2 µg/mL
same,MIC,"S. aureus; strain SAP0017, Methicillin resistant",> 8 µg/mL
same,"I50, Value in μg/ml",[2],36.92 ± 9.12 µg/mL
same,MIC,"E. coli; strain UB1005, Parent of DC2 (Table 2)",1 µg/mL
same,MIC,"P. aeruginosa; strain H187, Parent of H188",1 µg/mL
same,MIC,"P. aeruginosa; strain H188, Antibiotic sensitive",0.25 µg/mL
same,MIC,"P. aeruginosa; strain H309, Wildtype",1 µg/mL
same,MIC,P. AERUGINOSA H309; +5 mM Mg^++,4 µg/mL
same,MIC,P. AERUGINOSA H309; +80 mM Na^+,1 µg/mL
same,MIC,P. AERUGINOSA H309; No addition,1 µg/mL
same,MIC,"E. cloacae; strain 218S, Parent of 218R1 (Table 2)",0.5 µg/mL
same,"I50, Value in μg/ml",P. aeruginosa H103 LPS,18.16 ± 6.77 µg/mL
same,IC50,"P. aeruginosa H103 LPS; read-out: I50, Value in μM",19.2 ± 7.18 µM
"CC(C)(O/N=C(\C(=O)N[C@@H]1C(=O)N2C(C(=O)[O-])=C(C[n+]3ccccc3)CS[C@H]12)c1csc(N)n1)C(=O)O [Ceftazidime, ceftazidime]",MIC in the presence of,[1]; CEMA 0.7 μg/ml,2 μg/m1
same,MIC in the presence of,[1]; CEMA 1.4 μg/ml,2 μg/m1
same,MIC in the presence of,[1]; CEME 0.6 μg/ml,4 μg/m1
same,MIC in the presence of,[1]; CEME 1.2 μg/ml,4 μg/m1
same,MIC in the presence of,[1]; Melittin 2 μg/ml,4 μg/m1
same,MIC in the presence of,[1]; Melittin 4 μg/ml,2 μg/m1
same,MIC in the presence of,[1]; No peptide,4 μg/m1
same,MIC,"S. aureus; Staphylococcus aureus, strain RN4220, Methicillin sensitive",8 µg/mL
same,MIC,"S. aureus; Staphylococcus aureus, strain SAP0017, Methicillin resistant",> 16 µg/mL
same,MIC,"E. coli; Escherichia coli, SC9251 / SC9252, strain SC9251, Parent of SC9252",0.12 µg/mL
same,MIC,"E. coli; Escherichia coli, SC9252, strain SC9252, Polymyxin resistant",0.5 µg/mL
same,MIC,"E. coli; Escherichia coli, strain DC2, Polymyxin sensitive",0.06 µg/mL
same,MIC,"E. coli; Escherichia coli, strain UB1005, Parent of DC2 (Table 2)",0.5 µg/mL
same,MIC,"P. aeruginosa; Pseudomonas aeruginosa, strain H187, Parent of H188, read-out: MIC",2 µg/mL
same,MIC,"P. aeruginosa; Pseudomonas aeruginosa, strain H188, Antibiotic sensitive, read-out: MIC",0.03 µg/mL
same,MIC,"P. aeruginosa; Pseudomonas aeruginosa, strain H309, Wildtype, read-out: MIC",1 µg/mL
same,MIC,"S. typhimurium; Salmonella enterica, TYPHIMURIUM",0.25 µg/mL
same,MIC,"S. typhimurium; strain C590, Defensin sensitive",0.25 µg/mL
same,MIC,"P. AERUGINOSA H309; Pseudomonas aeruginosa, +5 mM Mg^++, read-out: MIC",2 µg/mL
same,MIC,"P. AERUGINOSA H309; Pseudomonas aeruginosa, +80 mM Na^+, read-out: MIC",2 µg/mL
same,MIC,"P. AERUGINOSA H309; Pseudomonas aeruginosa, No addition, read-out: MIC",1 µg/mL
same,MIC,"E. cloacae; Enterobacter cloacae, strain 218R1, β-lactam resistant",> 16 µg/mL
same,MIC,"E. cloacae; Enterobacter cloacae, strain 218S, Parent of 218R1 (Table 2)",0.5 µg/mL

# Reference: patent US5688767A, “Treatment of endotoxin-associated disorders with cationic peptides” (priority 1996, dated 1997)
